TGI data for 27 molecules are collected here from PubChem BioAssay (NCI).

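In this assay, cells in 96-well plates receive the compound at five concentrations for 48 hours. Endpoints are linearly interpolated between the surrounding concentrations. TGI: concentration producing complete growth inhibition.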 Where a SMILES comes first, the peptide text is derived from it. The star is where a group is joined. Boc = CC(C)(C)OC(=O)*

One assay concerns CCRF-CEM leukemia. As to the kind of experiment: NCI tumour cell line growth inhibition, 48 h.
Take `C=C1CC(COc2cc(=O)oc3ccccc23)(c2ccccc2)OC1=O` (centres undefined): the TGI is 2.26 µM.

`O=C(O)CSc1nnc(COc2ccc(Cl)cc2)n1-c1ccccc1` registered a TGI greater than 100 µM.

`C[N+]1=C2[B-](C(C)(C)C)=[N+](C(C)(C)C)[B-]2(C(C)(C)C)[N+](C)=C2[B-](C(C)(C)C)=[N+](C(C)(C)C)[B-]21C(C)(C)C` (centres undefined) returned a TGI greater than 100 µM.

`Cc1cc(N(CCC#N)CCC#N)ccc1/C=N/NC(=O)c1cc(Cl)ccc1O`: the TGI was greater than 100 µM.

Turning to `Brc1ccc(CCNCCN2CCCCC2)cc1`, the TGI was greater than 100 µM.

For the molecule `Cc1ccc(C(=O)Nc2ccc(CP(=O)(O)O)cc2CP(=O)(O)O)cc1NC(=O)c1cccc(N)c1`, the TGI was greater than 100 µM.

Molecule `OC1C2[C@@H](O)CCCN2C[C@@H](O)[C@H]1O` (some centres undefined) came in with a TGI greater than 100 µM.

`COCOC1/C=C/CCCC#C[C@H](C)C(=O)CC1` (some centres undefined) came in with a TGI of 8.46 µM.

`CC[C@]1(Cc2ccc(OC)c(OC)c2)CN(S(=O)(=O)c2ccc(C)cc2)C[C@@H]1OC(C)=O` yielded a TGI greater than 100 µM.

In turn, `COc1ccccc1N/C(=C\C(=O)C(=O)NC12CC3CC(CC(C3)C1)C2)c1ccccc1` came in with a TGI greater than 10 µM.

Consider `CC(C)(C)c1ccc2c(c1)CNCCNCc1cc(C(C)(C)C)ccc1OCC1(CO2)COc2ccc(C(C)(C)C)cc2CNCCNCc2cc(C(C)(C)C)ccc2OC1`, for which the TGI was 0.68 µM.

Molecule `NCC1CCN(c2nc3ccccc3c3c2CCCC3)CC1` yielded a TGI of 14.2 µM.

Molecule `CCN(CC)CCc1c2c(nc3ccccc13)C(=O)c1cccnc1C2=O` displayed a TGI of 5.72 µM.

Regarding `Nc1cc(CO)cc(Nc2nc3ccc(Cl)cc3c3[nH]c4ccccc4c23)c1`, the TGI amounted to 23.8 µM.

In turn, `Cc1c(F)c(N)c2c(=O)cc(-c3ccc(NC(=O)CN(C)C)c(F)c3)oc2c1F` yielded a TGI greater than 76.6 µM.

Turning to `CCN1CC2=C(NC(=S)NC2c2ccc(Cl)cc2)/C(=C/c2ccc(Cl)cc2)C1` (centres undefined), the TGI was 87.7 µM.

For the molecule `CN1C(=O)N(c2ccccc2)C2(CCN(CC3COc4ccccc4O3)CC2)C1=O` (centres undefined), the TGI was greater than 100 µM.

On to `O=C(O)c1c2c(cc3c1CC1(Cc4ccccc4C1)C3)CCC2`, for which the TGI is 66.7 µM.

Regarding `Cc1nc(-c2ccc([N+](=O)[O-])cc2)cn2c1nc1ccccc12`, the TGI was greater than 100 µM.

`OCC1CCCCCCCCCCC12SCCCS2` (centres undefined) registered a TGI greater than 100 µM.

Regarding `COc1cc(-c2cc(=O)c3cc4c(cc3[nH]2)OCO4)cc(OC)c1O`, the TGI is greater than 10 µM.

Take `O=C(Nc1ccc(Br)cc1)c1c(-c2ccccc2)c2ccc(O)cc2oc1=O`: the TGI was greater than 10 µM.

For another assay, the system named is MALME-3M melanoma. As to the kind of experiment: NCI tumour cell line growth inhibition, 48 h.
For the molecule `NC(C(F)(F)F)(C(F)(F)F)P(=O)(Cc1ccccc1)Cc1ccccc1`, the TGI was greater than 100 µM.

`CN1C(=O)C2C(=O)N(Cc3ccccc3)CC(=O)N2c2cccnc21` (centres undefined) displayed a TGI greater than 100 µM.

Molecule `C=C1CC(COc2cc(=O)oc3ccccc23)(c2ccccc2)OC1=O` (centres undefined) showed a TGI of 3.11 µM.

With `O=C(O)CSc1nnc(COc2ccc(Cl)cc2)n1-c1ccccc1`, the TGI was greater than 100 µM.

In turn, `C[N+]1=C2[B-](C(C)(C)C)=[N+](C(C)(C)C)[B-]2(C(C)(C)C)[N+](C)=C2[B-](C(C)(C)C)=[N+](C(C)(C)C)[B-]21C(C)(C)C` (centres undefined) registered a TGI greater than 100 µM.

Take `Cc1cc(N(CCC#N)CCC#N)ccc1/C=N/NC(=O)c1cc(Cl)ccc1O`: the TGI was greater than 100 µM.

On to `Brc1ccc(CCNCCN2CCCCC2)cc1`, for which the TGI is 31.7 µM.

Regarding `Cc1ccc(C(=O)Nc2ccc(CP(=O)(O)O)cc2CP(=O)(O)O)cc1NC(=O)c1cccc(N)c1`, the TGI was greater than 100 µM.

Take `OC1C2[C@@H](O)CCCN2C[C@@H](O)[C@H]1O` (some centres undefined): the TGI was greater than 100 µM.

In turn, `COCOC1/C=C/CCCC#C[C@H](C)C(=O)CC1` (some centres undefined) came in with a TGI of 19.4 µM.

Molecule `CC[C@]1(Cc2ccc(OC)c(OC)c2)CN(S(=O)(=O)c2ccc(C)cc2)C[C@@H]1OC(C)=O` yielded a TGI greater than 100 µM.

The molecule `COc1ccccc1N/C(=C\C(=O)C(=O)NC12CC3CC(CC(C3)C1)C2)c1ccccc1` yielded a TGI greater than 10 µM.

In turn, `CC(C)(C)c1ccc2c(c1)CNCCNCc1cc(C(C)(C)C)ccc1OCC1(CO2)COc2ccc(C(C)(C)C)cc2CNCCNCc2cc(C(C)(C)C)ccc2OC1` displayed a TGI of 2.8 µM.

For `NCC1CCN(c2nc3ccccc3c3c2CCCC3)CC1`, the TGI was determined as 26 µM.

`CCN(CC)CCc1c2c(nc3ccccc13)C(=O)c1cccnc1C2=O` gave a TGI of 4.49 µM.

In turn, `Nc1cc(CO)cc(Nc2nc3ccc(Cl)cc3c3[nH]c4ccccc4c23)c1` showed a TGI of 15.8 µM.

As for `Cc1c(F)c(N)c2c(=O)cc(-c3ccc(NC(=O)CN(C)C)c(F)c3)oc2c1F`, the TGI is greater than 100 µM.

In turn, `CCN1CC2=C(NC(=S)NC2c2ccc(Cl)cc2)/C(=C/c2ccc(Cl)cc2)C1` (centres undefined) came in with a TGI greater than 100 µM.

`CN1C(=O)N(c2ccccc2)C2(CCN(CC3COc4ccccc4O3)CC2)C1=O` (centres undefined) showed a TGI greater than 100 µM.

`O=C(O)c1c2c(cc3c1CC1(Cc4ccccc4C1)C3)CCC2` displayed a TGI greater than 100 µM.

In the case of `Cc1nc(-c2ccc([N+](=O)[O-])cc2)cn2c1nc1ccccc12`, the TGI was greater than 100 µM.

Molecule `OCC1CCCCCCCCCCC12SCCCS2` (centres undefined) displayed a TGI greater than 100 µM.

Consider `CC(C)=CCOC(=O)C(C)=[N+]=[N-]`, for which the TGI is greater than 100 µM.

Molecule `COC(=O)CNC(=O)C(Cc1ccccc1)NC(=O)C(CCSC)NC(=O)C(Cc1ccc(O)cc1)NC(=O)OC(C)(C)C` (centres undefined) (Boc-YMFG-OMe; configuration not given here) yielded a TGI greater than 100 µM.

For the molecule `O=C(Nc1ccc(Br)cc1)c1c(-c2ccccc2)c2ccc(O)cc2oc1=O`, the TGI is greater than 10 µM.

In turn, `COc1ccc(N2C(=O)C3c4[nH]c5ccc(OCc6ccccc6)cc5c4C4CCC(C(C)(C)C)CC4C3C2=O)cc1` (centres undefined) displayed a TGI of 54.1 µM.

In a further assay the test system is PC-3 prostate. As to the kind of experiment: NCI tumour cell line growth inhibition, 48 h.
In the case of `NC(C(F)(F)F)(C(F)(F)F)P(=O)(Cc1ccccc1)Cc1ccccc1`, the TGI is greater than 100 µM.

`CN1C(=O)C2C(=O)N(Cc3ccccc3)CC(=O)N2c2cccnc21` (centres undefined): the TGI was greater than 100 µM.

Molecule `C=C1CC(COc2cc(=O)oc3ccccc23)(c2ccccc2)OC1=O` (centres undefined) yielded a TGI of 5.9 µM.

The molecule `O=C(O)CSc1nnc(COc2ccc(Cl)cc2)n1-c1ccccc1` showed a TGI greater than 100 µM.

Consider `C[N+]1=C2[B-](C(C)(C)C)=[N+](C(C)(C)C)[B-]2(C(C)(C)C)[N+](C)=C2[B-](C(C)(C)C)=[N+](C(C)(C)C)[B-]21C(C)(C)C` (centres undefined), for which the TGI is greater than 100 µM.

Regarding `Cc1cc(N(CCC#N)CCC#N)ccc1/C=N/NC(=O)c1cc(Cl)ccc1O`, the TGI is greater than 100 µM.

As to `Brc1ccc(CCNCCN2CCCCC2)cc1`, the TGI was 31.7 µM.

In turn, `Cc1ccc(C(=O)Nc2ccc(CP(=O)(O)O)cc2CP(=O)(O)O)cc1NC(=O)c1cccc(N)c1` came in with a TGI greater than 100 µM.

Regarding `OC1C2[C@@H](O)CCCN2C[C@@H](O)[C@H]1O` (some centres undefined), the TGI was greater than 100 µM.

Regarding `COCOC1/C=C/CCCC#C[C@H](C)C(=O)CC1` (some centres undefined), the TGI was 21.5 µM.

In turn, `CC[C@]1(Cc2ccc(OC)c(OC)c2)CN(S(=O)(=O)c2ccc(C)cc2)C[C@@H]1OC(C)=O` returned a TGI greater than 100 µM.

`COc1ccccc1N/C(=C\C(=O)C(=O)NC12CC3CC(CC(C3)C1)C2)c1ccccc1` displayed a TGI greater than 10 µM.

As for `CC(C)(C)c1ccc2c(c1)CNCCNCc1cc(C(C)(C)C)ccc1OCC1(CO2)COc2ccc(C(C)(C)C)cc2CNCCNCc2cc(C(C)(C)C)ccc2OC1`, the TGI is 2.93 µM.

For the molecule `NCC1CCN(c2nc3ccccc3c3c2CCCC3)CC1`, the TGI came out at 22.5 µM.

Take `CCN(CC)CCc1c2c(nc3ccccc13)C(=O)c1cccnc1C2=O`: the TGI was 18.6 µM.

In the case of `Nc1cc(CO)cc(Nc2nc3ccc(Cl)cc3c3[nH]c4ccccc4c23)c1`, the TGI came out at 19.1 µM.
